Key:
[1] = tested on: neurons in the hippocampus; assay: NeuN immunohistochemistry of hippocampus post-injury; type: in vivo, Sprague Dawley rats; settings: after sacrifice on day 8 post-injury; vs saline rats; FIG. 8a/8b
From the text: (§1) 2007 Mar. 15; 160(2):187-96. Onyszchuk, G., et al., J. Neurosci. Methods, 2007, 160(2): p.
FIG. 8a illustrates neuronal viability in the saline rat hippocampus.

[2] = intranasal insulin; normal adults and patients with Alzheimer's disease; cited from earlier work
[3] = tested on: Moderate Controlled Cortical Impact Injury Model (TBI); assay: Peg walk motor function test after controlled cortical impact; type: in vivo, Sprague Dawley rats; settings: day 7 vs day 1 baseline and vs saline (vehicle) rats on day 7; intranasal, once a day; FIG. 2
From the text: as §1

M1 microglia (CD86) = assay: M1 microglia marker CD86 expression post-injury; type: in vivo, Sprague Dawley rats; settings: sacrifice on day 8 post-injury; vs saline rats; FIG. 4
From the text: as §1
(§2) Microglia are the macrophages of the brain, with two dominant phenotypes: M1 and M2.
(§3) M1 microglia are classically activated pro-inflammatory cells. M1 microglia are useful in the initial healing process, but persistent activation results in neuronal cell death due to production of reactive oxygen species. M2 microglia are anti-inflammatory, pro-healing macrophages.

M2 microglia (CD206) = assay: M2 microglia marker CD206 expression post-injury; type: in vivo, Sprague Dawley rats; settings: sacrifice on day 8 post-injury; vs intranasal saline rats; FIG. 3
From the text: as §1, §2, §3

[4] = tested on: Moderate Controlled Cortical Impact Injury Model (TBI); assay: Beam walk motor function test after controlled cortical impact; type: in vivo, Sprague Dawley rats; settings: day 7 post-injury vs day 1 baseline and vs saline (vehicle) rats on day 7; intranasal, first dose 4 hours post-injury, then once a day; FIG. 1
From the text: as §1

[5] = tested on: Moderate Controlled Cortical Impact Injury Model (TBI); assay: Morris water maze probe trial after controlled cortical impact; type: in vivo, Sprague Dawley rats; settings: days 11-14 post-injury
From the text: as §1

## insulin
[1]
  neuronal viability in the hippocampus (NeuN): improved neuronal viability in the hippocampus
[2]
  memory: improve memory
[3]
  peg walk motor function: positive trend towards improved motor function
M1 microglia (CD86)
  M1 microglia markers, expression of CD86: no significant increase in expression of M1 microglia markers
M2 microglia (CD206)
  M2 microglia, expression of CD206: significant increase in M2 microglia
[4]
  time to cross the beam (beam walk): significant decrease in time
[5]; insulin vs saline (vehicle) treated rats, FIG. 7
  search strategy (Morris water maze probe trial): saline (vehicle) treated rats utilized significantly less targeted search methods (looping) than insulin rats
[5]; vs saline (vehicle) treated rats, FIG. 6
  number of crosses of the target island region (Morris water maze probe trial): significant increase in the number of crosses of the target island region

From patent US11559579B2 (HealthPartners Research & Education, priority 2014, dated 2023)
